In patent publication EP0802730B1, “PESTICIDAL COMPOUNDS” (BTG INTERNATIONAL LIMITED, priority 1995, dated 1996):
In brackets after ≈: the same amount, converted by molar mass. Read-outs that look alike come from different tables or passages of the source.

Experiments:
[1] = test system: Whitefly (BT) (Bemisia tabaci), susceptible strain (SUD-S); test: Whitefly residual film vial test, susceptible strain SUD-S; type: in vivo
Protocol: (§1) Acetone solutions (0.100 ml) of the test compounds were placed in 10 ml glass vials and evaporated with rotation to deposit a film of the compound. Thirty adult whiteflies were placed inside the vial, then after 60 minutes, the treated insects were transferred onto untreated cotton leaf discs which were kept moist on a bed of agar gel. The temperature was maintained at 25°C and mortality assessed after 48 hours. Three replicates were used at each of 5 to 7 dose levels per compound.

[2] = test system: Houseflies (MD) (Musca domestica); type: in vivo; details: for MD (LD50): topical 1 µl drop in acetone on female flies, kill assessed 24 and 48 hours
Protocol: Female flies were treated on the thorax with a one microlitre drop of test compound dissolved in acetone. Two replicates of 15 flies were used at each dose rate and 6 dose rates were used per compound under test. After treatment, the flies were maintained at a temperature of 20° ± 1°C and kill was assessed 24 and 48 hours after treatment. LD50 values were calculated in micrograms of test compound per fly (see Sawicki et al., Bulletin of the World Health Organisation, 35, 893 (1966) and Sawicki et al., Entomologia and Exp. Appli 10, 253, (1967).

[3] = test system: resistant whitefly (BT) (Bemisia tabaci), Ned 7; test: Whitefly vial test, resistant strain Ned 7; type: in vivo; details: 48 h, read-out: BT (Ned 7) (LC50)
Protocol: as §1, with “per compound. LC50 values (ppm solution) were calculated by using a computer software package ("Polo-PC available from LeOra Software, Berkeley, California) (See M.R. Cahill and B. Hackett in Proceedings Brighton Crop Protection Conference, 1992). The test was carried out using a susceptible strain of whitefly (SUD-S) which was collected in Sudan in 1978 from cotton.” for “per compound.”
The test of Example 16 (BT (SUD-S)) was repeated using a resistant strain of whitefly (Ned 7). The Ned 7 strain was collected in the Netherlands in April, 1993 from hibiscus by J. Fransen and is highly resistant to organophosphate and carbamate insecticides and the insect growth regulator buprofezin.

[4] = test system: Mustard beetles (PC) (Phaedon cochleariae Fab); type: in vivo; details: NA = lack of detectable activity; for PC (LD50): 1 µl acetone drop applied ventrally to adults, kill at 48 hours
Protocol: A one microlitre drop of an acetone solution of the test compound was applied ventrally to adult mustard beetles using a micro drop applicator. The treated insects were maintained for 48 hours after which time kill was assessed. Two replicates each of 20 to 25 mustard beetles were used at each dose level and 5 dose levels were treated comparably. LD50 values were calculated as for houseflies.

[5] = test system: Mites (TU) (Tetranychus urticae), susceptible strain (GSS); test: Mite immersion test, susceptible strain GSS; type: in vivo
Protocol: (§2) 25 adult female mites were immersed in 35 µl of a solution of the test compound in a 1:4 acetone-water mixture for 30 seconds. The treated insects were maintained at 21° ± 2°C and kill was assessed 72 hours after treatment. […] Three replicates of 25 mites each were used at each dose rate and 5 or 6 dose rates were used per compound under test. LC50 values were calculated in ppm of the solution of the test compound per insect. The test was carried out using a susceptible strain of mites (GSS) supplied by Schering, AG, Berlin.

[6] = test system: Pyricularia oryzae (=Magnaporthe grisea); type: cell-based; details: P. oryzae; 100 mg 1^-1; 7 days
Aspergillus niger = test: Fungitoxicity in vitro on potato dextrose agar; type: cell-based; details: A. niger; 100 mg 1^-1; 4 days
[7] = test system: resistant mites (TU) (Tetranychus urticae), NYR-Bif-1000; test: Mite immersion test, bifenthrin-resistant strain; type: in vivo; details: 72 h, read-out: TU (NYR-Bif-1000) (LC50)
Protocol: as §2
The test of Example 16 (TU(GSS)) was repeated using a strain of mites which is resistant to bifenthrin (NYR-Bif-1000). The NYR-Bif-1000 strain was provided by the Department of Entomology, Cornell University, New York.

[8] = test system: Myzus persicae, susceptible strain (US1L); test: Aphid dip test, susceptible strain; type: in vivo
Protocol: Activity against resistant (R) and susceptible (S) strains of aphid (Myzus persicae) was assessed using the following method.
Entrapment rings of fluon were painted halfway up the inside of 4 cm lengths of glass tubing (1.5 cm diameter), and squares of insect-proof gauze were attached to one end of each tube by elastic bands. Fifteen apterous adults were then gently transferred into the tubes using a sable-hair brush, and the tube sealed with a second gauze square.
Tubes containing aphids were dipped into insecticide solutions for 10 seconds, dried on blotting paper, and then inverted and tapped to cause treated aphids to fall to the unimmersed end of each tube. Handling mortality (usually zero or very slight) was scored after 1 hour, when aphids were transferred onto chinese cabbage leaf-discs (35 mm diameter) on an agar bed (25 mm in depth) in disposible plastic containers (30 mm high) and confined by applying a ring of fluon to the exposed lip of the container. Containers were store upright, without lids, in a constant environment facility maintained at 25°C under continuous room lighting. Mortality was assessed at 24, 48 and 72 hours. Two replicates of 15 aphids each were used at each dose rate and 5 or 6 dose rates were used per compound under test.
The test was carried out using a susceptible strain of aphids (US1L) collected in the field in East Anglia, UK and an extremely resistant strain of aphids (794Jz) (R3 esterase, sensitive AChE) collected from glasshouses in the UK.
The values given are % mortality corrected for control data. The control comprised the test solution without active ingredient.

Rhizoctonia solani = test: Fungitoxicity in vitro on potato dextrose agar; type: cell-based; details: R. solani; 100 mg 1^-1; 4 days
[9] = test system: Diamond-back moth (PX) (Plutella xylostella); test: Diamond-back moth larvae topical test (failure to pupate); type: in vivo; details: fifth instar larvae, 0.5 µl drop; failure to pupate 5 days later
Protocol: Fifth instar larvae were treated with a 0.5 µl drop of test compound in acetone. Three replicates of 10 larvae each were used at each dose rate and 5 dose rates were used per compound under test. After treatment, the larvae were maintained at about 22°C, and kill was assessed as failure to pupate 5 days later. LD50 values were calculated as for houseflies.

[10] = Mammalian toxicity, whole body LD50; details: rat, in vivo; rats
Description: In addition to the specific insecticidal and acaricidal tests described above, compounds of the present invention were submitted for further tests relating to toxicity to mammals and so-called friendly species such as Chrysloperla carnea, Aleochora bilineata and Coccinella septempunctata.

[11] = ppm solution of test compound, 60 minutes film exposure, mortality after 48 hours, read-out: BT(SUD-S) (LC50)
[12] = ppm solution of test compound, 30 seconds immersion, kill at 72 hours, read-out: TU(GSS) (LC50)
[13] = strain S, 100 PPM, read-out: % mortality corrected for control data
[14] = strain S, read-out: % mortality corrected for control data

Structure (SMILES) | LC50 [1, 11] | MD (LD50) [2] | LC50 [3] | PC (LD50) [4] | LC50 [5, 12] | % inhibition of growth in colony diameter in agar plates, Activity at 100 mg 1^-1 [6] | % inhibition of growth in colony diameter in agar plates, Activity at 100 mg 1^-1 (Aspergillus niger) | LC50 [7] | mortality at 100 ppm [8, 13] | mortality at 250 ppm [8, 14] | % inhibition of growth in colony diameter in agar plates, Activity at 100 mg 1^-1 (Rhizoctonia solani) | mortality at 40 ppm ([8]; strain S, 40 PPM, read-out: % mortality corrected for control data) | PX (LD50) [9] | LC50 ([3]; resistant strain Ned 7, ppm solution of test compound) | LC50 ([1]; 48 h, Tables 10, 13, 14, susceptible strain, NA = lack of detectable activity, read-out: BT LC50 (ppm/insect)) | MD LD50 (µg/insect) ([2]; Tables 10, 13, 14, NA = lack of detectable activity) | PC LD50 (µg/insect) ([4]; Tables 10, 13, 14) | LD50 [10] | mortality at 100 ppm ([8]; read-out: MP % kill 100 ppm) | LC50 ([5]; 72 h, Tables 10, 13, 14, susceptible strain, NA = lack of detectable activity, read-out: TU LC50 (ppm/insect))
CCCCCCCCCCCCC1=C(OC(C)=O)C(=O)c2ccccc2C1=O [Compound A, 2-n-dodecyl-3-ethanoyloxynaphthalene-1,4-dione, reference compound] | 82 µg/mL (≈ 213 µM) | >> 20 µg/insect | 470 µg/mL (≈ 1220 µM) | 0.36 µg/insect | 64 µg/mL (≈ 166 µM) |  |  |  |  |  |  |  |  |  |  |  |  |  |  | 
CCC(C)(C)C1=C(O)C(=O)c2ccccc2C1=O [Example 1, 2-(1,1-dimethylpropyl)-3-hydroxynaphthalene-1,4-dione] | 19 µg/mL (≈ 77.8 µM) | < 10 µg/insect |  | c. 10 µg/insect | 39 µg/mL (≈ 160 µM) | 100% | 63% | 84 µg/mL (≈ 344 µM) | 11% | 26% | 95% |  |  |  |  |  |  |  |  | 
CCC(C)(C)C1=C(OC(C)=O)C(=O)c2ccccc2C1=O [Example 2, 2-(1,1-dimethylpropyl)-3-ethanoyloxy-naphthalene-1,4-dione] | 4.8 µg/mL (≈ 16.8 µM) | < 10 µg/insect |  | c. 6.0 µg/insect | 64 µg/mL (≈ 224 µM) | 89% | 38% | 83 µg/mL (≈ 290 µM) |  | 27% | 81% | 20% | c. 10 µg/insect |  |  |  |  |  |  | 
CC(C)(C)C1=C(O)C(=O)c2ccccc2C1=O [Example 3, 2-(t-butyl)-3-hydroxy-naphthalene-1,4-dione] | 8 µg/mL (≈ 34.7 µM) | c. 2.5 µg/insect |  | c. 6.0 µg/insect | 81 µg/mL (≈ 352 µM) | 100% | 61% |  | 27% | 87% | 92% |  | c. 8.0 µg/insect |  |  |  |  |  |  | 
C=CC(C)(C)C1=C(OC(=O)CCC)C(=O)c2ccccc2C1=O [Example 5] | 13 µg/mL (≈ 41.6 µM) |  |  | 6.9 µg/insect | 84 µg/mL (≈ 269 µM) |  |  |  |  |  |  |  |  | 21 µg/mL (≈ 67.2 µM) |  |  |  |  |  | 
C=CC(C)(C)C1=C(OC(=O)CCCCCCCCC)C(=O)c2ccccc2C1=O [Example 8] |  |  |  | c. 8.0 µg/insect | 630 µg/mL (≈ 1590 µM) |  |  |  |  |  |  |  | c. 0.1 µg/insect |  |  |  |  |  |  | 
C=CC(C)(C)C1=C(OCc2ccccc2)C(=O)c2ccccc2C1=O [Example 13] | > 1000 µg/mL | > 20 µg/insect |  | > 20 µg/insect | > 1000 µg/mL |  |  |  |  |  |  |  | c. 8.0 µg/insect |  |  |  |  |  |  | 
CC1(C2=C(O)C(=O)c3ccccc3C2=O)CCCCC1 [Example 25, 2-hydroxy-3-(1'-methylcyclohexyl)-naphthalene-1,4-dione] |  |  |  |  |  | 94% | 45% |  | 23% | 67% | 93% |  |  |  | 0.1 µg/mL (≈ 0.37 µM) | 1.9 µg/insect | 5 µg/insect | 2790 mg/kg | 22% | 28 µg/mL (≈ 104 µM)
